The text below walks through data of article PMC12169475 (ACS Medicinal Chemistry Letters, 2025).

Ends that are not written are not given here. Where only a bound is given, the exact number is not on record here.

In data set [1] the test system is A. baumannii NICD 15283 (C). Also on record: key: S - Susceptible; R - Resistant; I – Intermediate. Particulars: A. baumannii NICD 15283 clinical isolate; ref NICD; cited from earlier work.
For data set [2], the system named is E. cloacae NICD 16103 (C). Also on record: key: S - Susceptible; R - Resistant; I – Intermediate. Conditions: E. cloacae NICD 16103 clinical isolate; ref NICD; cited from earlier work.
In data set [3] the test system is K. pneumoniae ATCC BAA-1705. Particulars: for Modal MIC: K. pneumoniae ATCC BAA-1705, cation-adjusted MHB, ~5 x 10^5 CFU/mL, 37°C 20 h, OD600, n = 6; for Selectivity index (HaCat LC50 / MIC): K. pneumoniae ATCC BAA-1705 over HaCat cells. Here is the method:
(§1) Antibacterial activity against a panel of standard laboratory strains and clinical isolates.
(§2) Antimicrobial activity was evaluated against a panel of Gram-negative bacteria maintained by H3D, University of Cape Town, consisting of six laboratory reference strains and two clinical isolates. Briefly, bacterial colonies from an LB agar plate were picked and cultured in cation-adjusted Mueller Hinton broth (MHB) at 37°C with 180 rpm shaking, overnight. Cultures were […]
(§3) back diluted to reach a starting optical density at 600 nm (OD600) of 0.1 and then diluted 100- […]
(§4) media down polypropylene 96-well plates. Inoculum was added at a 1:1 ratio resulting in a […]
(§5) (Suppl. Table S2). Plates were incubated at 37°C for 20 h and the OD600 determined. Minimum inhibition concentrations (MICs) were determined from a minimum of three biological repeats. […]
(§6) the background absorbance.
(§7) Caution! All bacterial work was conducted using appropriate biosafety level 2 (BSL-2) practices.
(§8) Clinical isolates and reference strains were handled in a biosafety cabinet with proper PPE to prevent exposure and contamination.

The test system of a further data set is E. coli ATCC 700928. Conditions: for Modal MIC: E. coli ATCC 700928, cation-adjusted MHB, ~5 x 10^5 CFU/mL, 37°C 20 h, OD600, n = 6; for Selectivity index (HaCat LC50 / MIC): E. coli ATCC 700928 over HaCat cells. Here is the method: as §1, §2, §3, §4, §5, §6, §7, §8
The subject of the next data set is P. aeruginosa PAO1. Particulars: for Modal MIC: P. aeruginosa PAO1, cation-adjusted MHB, ~5 x 10^5 CFU/mL, 37°C 20 h, OD600, n = 6; for Selectivity index (HaCat LC50 / MIC): P. aeruginosa PAO1 over HaCat cells. Here is the method: as §1, §2, §3, §4, §5, §6, §7, §8
In data set [4] the test system is A. baumannii NICD 15283 (C). Particulars: for Modal MIC: A. baumannii NICD 15283 clinical isolate, cation-adjusted MHB, ~5 x 10^5 CFU/mL, 37°C 20 h, OD600, n = 6; for Selectivity index (HaCat LC50 / MIC): A. baumannii NICD 15283 clinical isolate over HaCat cells. Here is the method: as §1, §2, §3, §4, §5, §6, §7, §8
Another data set has as its system E. cloacae ATCC 700323. Particulars: for Modal MIC: E. cloacae ATCC 700323, cation-adjusted MHB, ~5 x 10^5 CFU/mL, 37°C 20 h, OD600, n = 6; for Selectivity index (HaCat LC50 / MIC): E. cloacae ATCC 700323 over HaCat cells. Here is the method: as §1, §2, §3, §4, §5, §6, §7, §8
The next data set concerns A. baumannii ATCC 19606. Conditions: for Modal MIC: A. baumannii ATCC 19606, cation-adjusted MHB, ~5 x 10^5 CFU/mL, 37°C 20 h, OD600, n = 6; for Selectivity index (HaCat LC50 / MIC): A. baumannii ATCC 19606 over HaCat cells. Here is the method:
as §1, §2, §3, §4, §5, §6, §7, §8

Data set [5] concerns E. cloacae NICD 16103 (C). Conditions: for Modal MIC: E. cloacae NICD 16103 clinical isolate, cation-adjusted MHB, ~5 x 10^5 CFU/mL, 37°C 20 h, OD600, n = 6; for Selectivity index (HaCat LC50 / MIC): E. cloacae NICD 16103 clinical isolate over HaCat cells. Here is the method:
as §1, §2, §3, §4, §5, §6, §7, §8

In a further data set the test system is E. coli ATCC 25922. Particulars: for Modal MIC: E. coli ATCC 25922, cation-adjusted MHB, ~5 x 10^5 CFU/mL, 37°C 20 h, OD600, triplicate experiments in duplicate (n = 6); for Selectivity index (HaCat LC50 / MIC): E. coli ATCC 25922 over HaCat cells. Here is the method: as §1, §2, §3, §4, §5, §6, §7
The test system of the next data set is HaCat cells. The data set is described as follows: In vitro cytotoxicity screening against epidermal HaCat cells (MTT). Particulars: 24 h exposure in total (21 h + 3 h MTT), OD570, three independent experiments in duplicate (n = 6).

Take `NCC[C@H](O)C(=O)N[C@@H]1C[C@H](N)[C@@H](O[C@H]2O[C@H](CN)[C@@H](O)[C@H](O)[C@H]2O)[C@H](O)[C@H]1O[C@H]1O[C@H](CO)[C@@H](O)[C@H](N)[C@H]1O` [Amikacin]: the Antimicrobial susceptibility profile entry is recorded as “R” in [1] and “S” in [2].
Take `O=C(O)c1cn(C2CC2)c2cc(N3CCNCC3)c(F)cc2c1=O` [Ciprofloxacin, reference compound]: the “Modal MIC” value in data set [3] is > 32 µg/mL; with E. coli ATCC 700928 it was 0.25 µg/mL; in the data set on P. aeruginosa PAO1, 0.5 µg/mL.
Regarding `CNC(C)C1CCC(N)C(OC2C(N)CC(N)C(OC3OCC(C)(O)C(NC)C3O)C2O)O1` (stereo not drawn) [Gentamicin, reference compound], the “Modal MIC” value was 16/32 in data set [4]; 1/2 in [3]; 2 µg/mL with E. cloacae ATCC 700323; 0.5 µg/mL in the data set with E. coli ATCC 700928; 32 µg/mL in the data set with A. baumannii ATCC 19606; > 32 µg/mL in data set [5]. The “Modal MIC” value came out at 4 µg/mL in the data set on P. aeruginosa PAO1 and 0.5 µg/mL with E. coli ATCC 25922. Moreover, the Antimicrobial susceptibility profile entry in [1] and in data set [2] was “R” throughout.
Turning to `C[C@@H](O)[C@H]1C(=O)N2C(C(=O)O)=C(SCCN=CN)C[C@H]12` [Imipenem], the Antimicrobial susceptibility profile result in data set [1] and in data set [2] was “R” in each case.
`CC[C@H](C)[C@H](NC(=O)CN)C(=O)NCC(=O)N[C@@H](C)C(=O)N[C@H](C(=O)N[C@@H](CC(C)C)C(=O)N[C@@H](CCCCN)C(=O)N[C@H](C(=O)N[C@@H](CC(C)C)C(=O)N[C@H](C(=O)N[C@H](C(=O)NCC(=O)N[C@@H](CC(C)C)C(=O)N1CCC[C@H]1C(=O)N[C@@H](C)C(=O)N[C@@H](CC(C)C)C(=O)N[C@H](C(=O)N[C@@H](CO)C(=O)N[C@@H](Cc1c[nH]c2ccccc12)C(=O)N[C@H](C(=O)N[C@@H](CCCCN)C(=O)N[C@@H](CCCNC(=N)N)C(=O)N[C@@H](CCCCN)C(=O)N[C@@H](CCCNC(=N)N)C(=O)N[C@@H](CCC(N)=O)C(=O)N[C@@H](CCC(N)=O)C(N)=O)[C@@H](C)CC)[C@@H](C)CC)[C@@H](C)O)[C@@H](C)O)C(C)C)C(C)C` [Melittin, reference compound]: the “Modal MIC” value was found to be 4 µg/mL in data set [4], 4 µg/mL in the data set with E. coli ATCC 700928, 8 µg/mL in data set [5] and 2 µg/mL in the data set with P. aeruginosa PAO1.
As to `C[C@@H](O)[C@H]1C(=O)N2C(C(=O)O)=C(S[C@@H]3CN[C@H](C(=O)N(C)C)C3)[C@H](C)[C@H]12` [Meropenem, reference compound], the “Modal MIC” value in [4] worked out at 32 µg/mL; in data set [5] it was 16 µg/mL. For the same compound, the Antimicrobial susceptibility profile entry in data set [1] and in data set [2] was “R” in each case.
Regarding `CC1(C)[C@H](C(=O)O)N2C(=O)C[C@H]2S1(=O)=O` [Sulbactam], the values for the Antimicrobial susceptibility profile entry in [1] and in data set [2] were “I” and “R”, respectively.
Take `CN(C)[C@@H]1C(O)=C(C(N)=O)C(=O)[C@@]2(O)C(O)=C3C(=O)c4c(O)cccc4[C@@](C)(O)[C@H]3C[C@@H]12` [Tetracycline]: the Antimicrobial susceptibility profile result in [1] and in data set [2] was “R” each time.
Take `NC[C@H]1O[C@H](O[C@H]2[C@H](O)[C@@H](O[C@H]3O[C@H](CO)[C@@H](O)[C@H](N)[C@H]3O)[C@H](N)C[C@@H]2N)[C@H](N)C[C@@H]1O` [Tobramycin]: the Antimicrobial susceptibility profile result in data set [1] and in data set [2] was “R” throughout.
For the compound GKVWKWIKSTAKKLWN-NH2 [Opis16aD5K], in the data set on HaCat cells, the “HaCat toxicity LC50 + SD” value was 148 ± 6 µg/mL. Further, the “Selectivity index (HaCat LC50 / MIC)” value is listed as 18.5 in data set [4]; 9.27 in [3]; 9.27 in the data set with E. cloacae ATCC 700323; 18.5 in the data set with A. baumannii ATCC 19606; 18.5 in data set [5]; 18.5 with P. aeruginosa PAO1. In addition, the “Modal MIC” value in data set [4] amounted to 8 µg/mL; in data set [3], 16 µg/mL; in the data set with E. cloacae ATCC 700323 it was 16 µg/mL; in the data set on A. baumannii ATCC 19606, 8 µg/mL; in data set [5] it was 8 µg/mL; in the data set on P. aeruginosa PAO1 it was 8 µg/mL. Besides, in the data set on E. coli ATCC 25922, the “Modal MIC” value was 16 µg/mL.
With GRVWRWIKSTAKKLWN-NH2 [Opis16aNterKR], the “HaCat toxicity LC50 + SD” value with HaCat cells came to 138 ± 14 µg/mL. Further, the “Selectivity index (HaCat LC50 / MIC)” value came to 17.3 in [4]; 8.64 in [3]; 8.64 in the data set with E. cloacae ATCC 700323; 34.6 with E. coli ATCC 700928; 34.6 with A. baumannii ATCC 19606; 17.3 in data set [5]. The “Selectivity index (HaCat LC50 / MIC)” value in the data set on P. aeruginosa PAO1 stood at 34.6; in the data set with E. coli ATCC 25922, 17.3. For the same compound, the “Modal MIC” value was determined as 8 µg/mL in [4]; 16 µg/mL in data set [3]; 16 µg/mL in the data set on E. cloacae ATCC 700323; 4 µg/mL with E. coli ATCC 700928; 4 µg/mL in the data set with A. baumannii ATCC 19606; 8 µg/mL in [5]. The figures for the “Modal MIC” value in the data set on P. aeruginosa PAO1 and in the data set on E. coli ATCC 25922 were 4 µg/mL and 8 (8×) μg/mL, respectively.
In the case of GRVWRWIRSTARRLWN-NH2 [Opis16aKR], in the data set on HaCat cells, the “HaCat toxicity LC50 + SD” value is 131 ± 5 µg/mL. The “Selectivity index (HaCat LC50 / MIC)” value is on record as 16.4 in data set [4]; 8.21 in [3]; 32.9 in the data set with E. coli ATCC 700928; 32.9 in the data set with A. baumannii ATCC 19606; 32.9 in data set [5]; 32.9 in the data set on P. aeruginosa PAO1. Moreover, the “Selectivity index (HaCat LC50 / MIC)” value in the data set on E. coli ATCC 25922 stood at 16.4. Further, the “Modal MIC” value was 8 µg/mL in data set [4]; 16 µg/mL in data set [3]; 8 (8×) μg/mL with E. cloacae ATCC 700323; 4 µg/mL with E. coli ATCC 700928; 4 µg/mL in the data set with A. baumannii ATCC 19606; 4 (4×) μg/mL in data set [5]. For the same compound, the “Modal MIC” value in the data set on P. aeruginosa PAO1 was 4 µg/mL; in the data set on E. coli ATCC 25922, 8 (8×) μg/mL.
On to Polymyxin B [reference compound], for which the “Modal MIC” value in data set [4] came to 1 µg/mL; in [3] it was 0.5 µg/mL; in the data set on E. cloacae ATCC 700323, 0.25 µg/mL; with E. coli ATCC 700928 it was 0.5 µg/mL; in the data set on A. baumannii ATCC 19606, 1 µg/mL; with E. coli ATCC 25922 it was 0.25 µg/mL.
